Columns and labels:
FADD−/− Jurkat cells = test: Necroptosis inhibition assay, TNF-α-induced necroptosis (CellTiter-Glo 2.0); assay type: cell-based, human; details: TNF-α 15 ng/mL; for Necroptosis inhibition assay (Rescue %) 1 μM: compound 1 μM; for Necroptosis inhibition assay (Rescue %) 10 μM: compound 10 μM
Outline: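 Cmpd 0.1/1/10 μM final, 30 min RT preincubation; TNF-α 15 ng/mL final; 20–24 h, 37° C, 5% CO2. Readout: ATP luminescence (reagent 1:3 in PBS), 0.5 s/well. Cytotoxicity and % necroptosis inhibition calculated from signal.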

MLKL [1] = target: T1, MLKL (Homo sapiens, UniProt Q8NB16); test: MLKL degradation assay in HepG2 cell line (western blot); assay type: cell-based; design: endogenous in cells; host or cells: HepG2 or HaCaT; details: cell line not given; for Degradation assay (Degradation %) 1 μM: compound 1 μM; for Degradation assay (Degradation %) 10 μM: compound 10 μM
T1 sequence (Q8NB16 1-471): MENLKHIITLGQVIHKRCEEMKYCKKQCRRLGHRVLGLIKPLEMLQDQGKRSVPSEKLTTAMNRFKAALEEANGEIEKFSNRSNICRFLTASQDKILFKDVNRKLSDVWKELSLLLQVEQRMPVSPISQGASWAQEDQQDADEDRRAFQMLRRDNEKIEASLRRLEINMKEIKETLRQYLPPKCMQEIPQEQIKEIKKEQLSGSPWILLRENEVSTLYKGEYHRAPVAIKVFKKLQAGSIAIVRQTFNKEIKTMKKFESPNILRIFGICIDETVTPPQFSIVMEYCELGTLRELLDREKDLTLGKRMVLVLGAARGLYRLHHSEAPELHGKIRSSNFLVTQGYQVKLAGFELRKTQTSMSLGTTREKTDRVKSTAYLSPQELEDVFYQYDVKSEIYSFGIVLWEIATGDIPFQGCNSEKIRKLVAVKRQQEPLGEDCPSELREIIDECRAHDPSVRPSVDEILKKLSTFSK
Outline: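 HepG2, cpd final 1 or 10 μM, 20-24 h, 37 °C/5% CO2; RIPA lysis, BCA-normalized, 10-15 μg/lane SDS-PAGE, western blot, ECL read-out.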

MLKL [2] = target: T1, MLKL; test: Measurement of binding affinity with MLKL receptor (competitive binding assay, Kd); design: made in house; host or cells: HEK 293 cell line (T7 phage in E. coli BL21-derived host is also described)
Outline: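 Kd from an immobilized-ligand competition format: the DNA-tagged kinase from HEK 293 expression is eluted and quantified by qPCR. Compounds added from 111× DMSO stocks, final DMSO 0.9%.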

Row | SMILES | Necroptosis inhibition assay (Rescue %) 1 μM (FADD−/− Jurkat cells) [%] | Necroptosis inhibition assay (Rescue %) 10 μM (FADD−/− Jurkat cells) [%] | Degradation assay (Degradation %) 1 μM (MLKL [1]) [%] | Degradation assay (Degradation %) 10 μM (MLKL [1]) [%] | Kd (MLKL [2]) [nM] | Necroptosis inhibition assay (Rescue %) 1 μM (FADD−/− Jurkat cells; FADD−/− Jurkat cells) [%] | Necroptosis inhibition assay (Rescue %) 10 μM (FADD−/− Jurkat cells; FADD−/− Jurkat cells) [%]
1 | Nc1ncc(-c2cnn(C3CCN(CC4CCN(C(=O)CC5CCN(c6cccc7c6C(=O)N(C6CCC(=O)NC6=O)C7=O)CC5)CC4)CC3)c2)nc1C(=O)O[C@@H](C(=O)Nc1ccc(F)cc1)c1ccccc1 (stereo partly drawn) [TDH-204, (R)-2-((4-fluorophenyl)amino)-2-oxo-1-phenylethyl 3-amino-6-(1-(1-((1-(2-(1-(2-(2,6-dioxopiperidin-3-yl)-1,3-dioxoisoindolin-4-yl)piperidin-4-yl)acetyl)piperidin-4-yl)methyl)piperidin-4-yl)-1H-pyrazol-4-yl)pyrazine-2-carboxylate] | 61.24 | 38.71 | 70 | 53.96 | 4.2 | – | –
2 | COc1ccc(C(=O)N2CCC(CN3CCN(CCCN4CCC(n5cc(-c6cnc(N)c(C(=O)O[C@@H](C(=O)Nc7ccc(F)cc7)c7ccccc7)n6)cn5)CC4)CC3)CC2)cc1N1CCC(=O)NC1=O [TDH-478, (R)-2-((4-fluorophenyl)amino)-2-oxo-1-phenylethyl 3-amino-6-(1-(1-(3-(4-((1-(3-(2,4-dioxotetrahydropyrimidin-1(2H)-yl)-4-methoxybenzoyl)piperidin-4-yl)methyl)piperazin-1-yl)propyl)piperidin-4-yl)-1H-pyrazol-4-yl)pyrazine-2-carboxylate] | – | – | 89.29 | 86.88 | 0.26 | 92.11 | 43.19
3 | Nc1ncc(-c2cnn(C3CCN(CCOC4CCN(c5cccc6c5C(=O)N(C5CCC(=O)NC5=O)C6=O)CC4)CC3)c2)nc1C(=O)OC(C(=O)Nc1ccc(F)cc1)c1ccccc1 (stereo not shown) [TDH-253, 2-((4-fluorophenyl)amino)-2-oxo-1-phenylethyl 3-amino-6-(1-(1-(2-((1-(2-(2,6-dioxopiperidin-3-yl)-1,3-dioxoisoindolin-4-yl)piperidin-4-yl)oxy)ethyl)piperidin-4-yl)-1H-pyrazol-4-yl)pyrazine-2-carboxylate] | 65.01 | 36.1 | 80.74 | 59.15 | 10 | – | –
4 | Nc1ncc(-c2cnn(C3CCN(CC4CCN(CC(=O)N5CCC(Nc6cccc7c6C(=O)N(C6CCC(=O)NC6=O)C7=O)CC5)CC4)CC3)c2)nc1C(=O)OC(C(=O)Nc1ccc(F)cc1)c1ccccc1 (stereo not shown) [TDH-238, 2-((4-fluorophenyl)amino)-2-oxo-1-phenylethyl 3-amino-6-(1-(1-((1-(2-(4-((2-(2,6-dioxopiperidin-3-yl)-1,3-dioxoisoindolin-4-yl)amino)piperidin-1-yl)-2-oxoethyl)piperidin-4-yl)methyl)piperidin-4-yl)-1H-pyrazol-4-yl)pyrazine-2-carboxylate] | 43.63 | 31.99 | 30.48 | 18.31 | 1.7 | – | –
5 | Nc1ncc(-c2cnn(C3CCN(CCc4cn(C5CCN(C(=O)COc6ccc7c(c6)C(=O)N(C6CCC(=O)NC6=O)C7=O)CC5)nn4)CC3)c2)nc1C(=O)O[C@@H](C(=O)Nc1ccc(F)cc1)c1ccccc1 (stereo partly drawn) [TDH-451, (R)-2-((4-fluorophenyl)amino)-2-oxo-1-phenylethyl 3-amino-6-(1-(1-(2-(1-(1-(2-((2-(2,6-dioxopiperidin-3-yl)-1,3-dioxoisoindolin-5-yl)oxy)acetyl)piperidin-4-yl)-1H-1,2,3-triazol-4-yl)ethyl)piperidin-4-yl)-1H-pyrazol-4-yl)pyrazine-2-carboxylate] | – | – | 64.37 | 50.39 | 0.54 | 19.55 | 17.67
6 | Cn1c(=O)n(C2CCC(=O)NC2=O)c2ccc(N3CCC(C(=O)N4CCN(CCCN5CCC(n6cc(-c7cnc(N)c(C(=O)O[C@@H](C(=O)Nc8ccc(F)cc8)c8ccccc8)n7)cn6)CC5)CC4)CC3)cc21 (stereo partly drawn) [TDH-540, (R)-2-((4-fluorophenyl)amino)-2-oxo-1-phenylethyl 3-amino-6-(1-(1-(3-(4-(1-(1-(2,6-dioxopiperidin-3-yl)-3-methyl-2-oxo-2,3-dihydro-1H-benzo[d]imidazol-5-yl)piperidine-4-carbonyl)piperazin-1-yl)propyl)piperidin-4-yl)-1H-pyrazol-4-yl)pyrazine-2-carboxylate] | – | – | 81.44 | 56.99 | 0.37 | 20.79 | 17.37
7 | Nc1ncc(-c2cnn(C3CCN(CCC4CCN(C(=O)COc5ccc6nnn(C7CCC(=O)NC7=O)c(=O)c6c5)CC4)CC3)c2)nc1C(=O)OC(C(=O)Nc1ccc(F)cc1)c1ccccc1 (stereo not shown) [TDH-293, 2-((4-fluorophenyl)amino)-2-oxo-1-phenylethyl 3-amino-6-(1-(1-(2-(1-(2-((3-(2,6-dioxopiperidin-3-yl)-4-oxo-3,4-dihydrobenzo[d][1,2,3]triazin-6-yl)oxy)acetyl)piperidin-4-yl)ethyl)piperidin-4-yl)-1H-pyrazol-4-yl)pyrazine-2-carboxylate] | 108.66 | 87.1 | 76.09 | 71.04 | 2.3 | – | –
8 | Nc1ncc(-c2cnn(C3CCN(CCOCCOCCOCCNC(=O)C4CN(c5cccc6c5C(=O)N(C5CCC(=O)NC5=O)C6=O)C4)CC3)c2)nc1C(=O)O[C@@H](C(=O)Nc1ccc(F)cc1)c1ccccc1 (stereo partly drawn) [TDH-141, (R)-2-((4-fluorophenyl)amino)-2-oxo-1-phenylethyl 3-amino-6-(1-(1-(1-(1-(2-(2,6-dioxopiperidin-3-yl)-1,3-dioxoisoindolin-4-yl)azetidin-3-yl)-1-oxo-5,8,11-trioxa-2-azatridecan-13-yl)piperidin-4-yl)-1H-pyrazol-4-yl)pyrazine-2-carboxylate] | 2.72 | 10.22 | 17.47 | 58.93 | 8.1 | – | –
9 | Nc1ncc(-c2cnn(C3CCN(CCOCCOCCNC(=O)CNc4cccc5c4C(=O)N(C4CCC(=O)NC4=O)C5=O)CC3)c2)nc1C(=O)O[C@@H](C(=O)Nc1ccc(F)cc1)c1ccccc1 (stereo partly drawn) [TDH-102, (R)-2-((4-fluorophenyl)amino)-2-oxo-1-phenylethyl 3-amino-6-(1-(1-(2-(2-(2-(2-((2-(2,6-dioxopiperidin-3-yl)-1,3-dioxoisoindolin-4-yl)amino)acetamido)ethoxy)ethoxy)ethyl)piperidin-4-yl)-1H-pyrazol-4-yl)pyrazine-2-carboxylate] | 39.17 | 42.99 | 12.94 | 42.92 | 2.1 | – | –
10 | Nc1ncc(-c2cnn(C3CCN(CCCCCCNC(=O)CNc4cccc5c4C(=O)N(C4CCC(=O)NC4=O)C5=O)CC3)c2)nc1C(=O)O[C@@H](C(=O)Nc1ccc(F)cc1)c1ccccc1 (stereo partly drawn) [TDH-101, (R)-2-((4-fluorophenyl)amino)-2-oxo-1-phenylethyl 3-amino-6-(1-(1-(6-(2-((2-(2,6-dioxopiperidin-3-yl)-1,3-dioxoisoindolin-4-yl)amino)acetamido)hexyl)piperidin-4-yl)-1H-pyrazol-4-yl)pyrazine-2-carboxylate] | 50.77 | 18.45 | 35.85 | 29.42 | 1.9 | – | –
11 | Nc1ncc(-c2cnn(C3CCN(C(=O)C4CCN(C(=O)C5CCN(c6cccc7nnn(C8CCC(=O)NC8=O)c(=O)c67)CC5)CC4)CC3)c2)nc1C(=O)O[C@@H](C(=O)Nc1ccc(F)cc1)c1ccccc1 (stereo partly drawn) [TDH-414, (R)-2-((4-fluorophenyl)amino)-2-oxo-1-phenylethyl 3-amino-6-(1-(1-(1-(1-(3-(2,6-dioxopiperidin-3-yl)-4-oxo-3,4-dihydrobenzo[d][1,2,3]triazin-5-yl)piperidine-4-carbonyl)piperidine-4-carbonyl)piperidin-4-yl)-1H-pyrazol-4-yl)pyrazine-2-carboxylate] | – | – | 75.28 | 74.89 | 0.79 | 17.52 | 13.19

Source: patent publication US20240252488A1 (KOREA RESEARCH INSTITUTE OF CHEMICAL TECHNOLOGY, priority 2020, published 2024)
